Test results reported in EPA's CvTdb concentration-time database.
Blank lines part the entries; values can stand above or below the compound they belong to.

What was measured:
Rat [1] = assay: concentration in brain after dosing; conditions: 0.2 h; dosed: 2-Methyltetrahydrofuran; 40 mg/kg; iv; Male; Harlan Sprague Dawley
Rat [2] = assay: concentration in plasma after dosing; conditions: 1.5 h; dosed: 2-Methyltetrahydrofuran; 40 mg/kg; iv; Male; Harlan Sprague Dawley
Rat [3] = assay: concentration in liver after dosing; conditions: 0.5 h; dosed: Fluorotelomer alcohol 8+2; 24 mg/kg; oral; Male; Harlan Sprague Dawley
Rat [4] = assay: concentration in plasma after dosing; conditions: dosed: 678-39-7, 12 mg/kg, iv, Male, F344
Rat [5] = assay: concentration in plasma after dosing; conditions: dosed: 678-39-7, 12 mg/kg, iv, Male, F344; remark: listed apart in the source
Rat [6] = assay: concentration in liver after dosing; conditions: 12 h; dosed: Fluorotelomer alcohol 8+2; 24 mg/kg; oral; Male; Harlan Sprague Dawley
Rat [7] = assay: concentration in plasma after dosing; conditions: dosed: Fluorotelomer alcohol 8+2, 12 mg/kg, oral, Male, Harlan Sprague Dawley
Rat [8] = assay: concentration in kidney after dosing; conditions: 3 h; dosed: Fluorotelomer alcohol 8+2; 80 mg/kg; oral; Female; Harlan Sprague Dawley
Rat [9] = assay: concentration in plasma after dosing; conditions: 0.25 h; dosed: Gemfibrozil; 4.29 mg/kg; oral; Male; Sprague-Dawley
Rat [10] = assay: concentration in plasma after dosing; conditions: 0.5 h; dosed: Gemfibrozil; 50 mg/kg; oral; Male; Sprague-Dawley
Rat [11] = assay: concentration in liver after dosing; conditions: 1 h; dosed: Perfluorohexanoic Acid; 80 mg/kg; oral; Female; Harlan Sprague Dawley
Rat [12] = assay: concentration in liver after dosing; conditions: 1 h; dosed: Perfluorohexanoic Acid; 80 mg/kg; oral; Male; Harlan Sprague Dawley
Rat [13] = assay: concentration in plasma after dosing; conditions: dosed: Perfluorohexanoic Acid, 80 mg/kg, oral, Male, Harlan Sprague Dawley
Rat [14] = assay: concentration in kidney after dosing; conditions: 24 h; dosed: Perfluorooctane Sulfonate; 20 mg/kg; oral; Female; F344
Rat [15] = assay: concentration in liver after dosing; conditions: 864 h; dosed: Perfluorooctane Sulfonate; 20 mg/kg; oral; Male; Harlan Sprague Dawley
Rat [16] = assay: concentration in kidney after dosing; conditions: 6 h; dosed: Perfluorooctane Sulfonate; 2 mg/kg; oral; Female; Harlan Sprague Dawley

concentration in brain (Rat [1]): 24900 ng/mL | concentration in plasma (Rat [2]): 11000 ng/mL
SMILES: CC1CCCO1 (stereo not given) [2-Methyltetrahydrofuran]

concentration in liver (Rat [3]): 347 ng/g | concentration in plasma (Rat [4]; 0.5 h): 167 ng/mL | concentration in plasma (Rat [4]; 9 h): 164 ng/mL | concentration in plasma (Rat [5]; 5 min): 11.6 ng/mL | concentration in plasma (Rat [5]; 3 h): 807 ng/mL | concentration in liver (Rat [6]): 1400 ng/g | concentration in plasma (Rat [7]; 0.75 h): 274 ng/mL | concentration in plasma (Rat [7]; 12 h): 110 ng/mL | concentration in kidney (Rat [8]): 5620 ng/g
SMILES: O=C(O)CCC(F)(F)C(F)(F)C(F)(F)C(F)(F)C(F)(F)C(F)(F)C(F)(F)F [Fluorotelomer acid 7+3]

concentration in plasma (Rat [9]): 1640 ng/mL | concentration in plasma (Rat [10]): 7800 ng/mL
SMILES: Cc1ccc(C)c(OCCCC(C)(C)C(=O)O)c1 [Gemfibrozil]

SMILES: O=C(O)C(F)(F)C(F)(F)C(F)(F)C(F)(F)C(F)(F)F [Perfluorohexanoic Acid]
concentration in liver (Rat [11]): 41600 ng/g | concentration in liver (Rat [12]): 83600 ng/g | concentration in plasma (Rat [13]; 0.25 h): 156000 ng/mL | concentration in plasma (Rat [13]; 24 h): 416 ng/mL

SMILES: O=S(=O)([O-])C(F)(F)C(F)(F)C(F)(F)C(F)(F)C(F)(F)C(F)(F)C(F)(F)C(F)(F)F [Perfluorooctane Sulfonate]
concentration in kidney (Rat [14]): 132000 ng/g | concentration in liver (Rat [15]): 98700 ng/g | concentration in kidney (Rat [16]): 9250 ng/g
